Measured values reported in ChEMBL document CHEMBL1201862, “PubChem BioAssay data set” (2004).
Values joined by “and” are separate entries in the source; they are usually repeats but may differ in a detail not shown here. Equal values may be shown once.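 Step 1: Grow cells in 96-well plates. Step 2: Expose to compound for 48 hours at 5 concentrations. Step 3: Interpolate endpoints linearly; if unreached, use highest concentration. GI50 marks 50% less growth.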 Active and inactive are the calls of the source. Rule as the data show it: active = GI50 up to about 1.1 µM and inactive = higher.

Experiments:
Assay in all cases: NCI-60 cell line screen, 48 h
KM-20L2 = test system: KM-20L2
DMS-273 = test system: DMS-273
M19-MEL = test system: M19-MEL
RXF 631 = test system: RXF 631
DMS-114 = test system: DMS-114
XF498 = test system: XF498
SNB-78 = test system: SNB-78
DLD-1 = test system: DLD-1
HOP-18 = test system: HOP-18

| Structure (SMILES) | GI50 (KM-20L2) | GI50 (DMS-273) | GI50 (M19-MEL) | GI50 (RXF 631) | GI50 (DMS-114) | GI50 (XF498) | GI50 (SNB-78) | GI50 (DLD-1) | GI50 (HOP-18) |
| --- | --- | --- | --- | --- | --- | --- | --- | --- | --- |
| C[N+](C)(C)C1CC([N+](C)(C)C)C2c3ccccc3C21 (centres undefined) | > 100 µM (inactive) | > 100 µM (inactive) | > 100 µM (inactive) | > 100 µM (inactive) | > 100 µM (inactive) | > 100 µM (inactive) | > 100 µM (inactive) | > 100 µM (inactive) | – |
| COc1ccccc1NC(=O)/C(=C/c1ccccc1)C(C)=O | – | – | 65.2 µM (inactive) | – | 40.3 µM (inactive) | 19.4 µM (inactive) | 10.8 µM (inactive) | 38.8 µM (inactive) | > 100 µM (inactive) |
| COc1ccc(NC(=O)CC/C(CC(=O)c2ccccc2Cl)=N\Nc2nnc(C)n2N)cc1 | > 100 µM (inactive) | > 100 µM (inactive) | > 100 µM (inactive) | > 100 µM (inactive) | > 100 µM (inactive) | – | > 100 µM (inactive) | > 100 µM (inactive) | > 100 µM (inactive) |
| COc1ccc(C(=O)C(c2ccc(OC)cc2)C2(O)C(=O)Nc3c(C)cc(Cl)cc32)cc1 (centres undefined) | > 100 µM (inactive) | 58.9 µM (inactive) | 20.8 µM (inactive) | 59 µM (inactive) | – | – | > 100 µM (inactive) | 76.4 µM (inactive) | – |
| Cn1cnc([N+](=O)[O-])c1Sc1nnnn1C | – | 17.7 µM (inactive) | 15.7 µM (inactive) | – | 17 µM (inactive) | 15.6 µM (inactive) | 12.7 µM (inactive) | 14.5 µM (inactive) | 9.86 µM (inactive) |
| CN(/N=C\c1ccnc2ccccc12)c1ccccc1 | – | 20 µM (inactive) | 26.1 µM (inactive) | – | 22.7 µM (inactive) | 29.7 µM (inactive) | 34.4 µM (inactive) | 21.5 µM (inactive) | 79.1 µM (inactive) |
| O=C1C(=Cc2ccc(F)cc2)C(=O)c2ccccc21 | > 100 µM (inactive) | > 100 µM (inactive) | 96.2 µM (inactive) | > 100 µM (inactive) | > 100 µM (inactive) | > 100 µM (inactive) | – | > 100 µM (inactive) | – |
| NC(=O)c1nc(-c2ccc(Cl)c(Cl)c2)nc2ccccc12 | > 100 µM (inactive) | – | > 38.1 µM (inactive) | – | > 20.4 µM (inactive) | 57.8 µM (inactive) | > 23.7 µM (inactive) | > 22.8 µM (inactive) | 34.8 µM (inactive) |
| CSc1nnc(COc2ccc(Cl)cc2)o1 | > 100 µM (inactive) | > 100 µM (inactive) | > 100 µM (inactive) | – | > 100 µM (inactive) | > 100 µM (inactive) | > 100 µM (inactive) | > 100 µM (inactive) | – |
| O=[N+]([O-])c1cc(/C=N/NS(=O)(=O)c2ccc(F)cc2)c(O)c([N+](=O)[O-])c1 | 25.9 µM (inactive) | 30.8 µM (inactive) | 49.8 µM (inactive) | – | 32.2 µM (inactive) | – | 52.6 µM (inactive) | 51.3 µM (inactive) | 85.3 µM (inactive) |
| OCC1OC(n2ccc3cnccc32)CC1O (centres undefined) | – | > 100 µM (inactive) | > 100 µM (inactive) | – | > 100 µM (inactive) | – | > 100 µM (inactive) | > 100 µM (inactive) | > 100 µM (inactive) |
| C/C(=N/O)c1ccc2c(c1)/C(=N/O)c1cc(/C(C)=N/O)ccc1-2 | 17.4 µM (inactive) | 23.8 µM (inactive) | 19.4 µM (inactive) | – | 22.4 µM (inactive) | 21.8 µM (inactive) | 17.5 µM (inactive) | 16.1 µM (inactive) | 14.1 µM (inactive) |
| CCC12C=CCN(CCc3c([nH]c4ccccc34)/C=C\1)C2 (centres undefined) | > 100 µM (inactive) | > 100 µM (inactive) | > 100 µM (inactive) | > 100 µM (inactive) | > 100 µM (inactive) | > 100 µM (inactive) | – | > 10 µM (inactive) | > 100 µM (inactive) |
| CC1=NN(C(=O)Nc2ccccc2)C(=O)C2CCC(=O)N12 (centres undefined) | > 100 µM (inactive) | > 100 µM (inactive) | > 100 µM (inactive) | > 100 µM (inactive) | > 100 µM (inactive) | > 100 µM (inactive) | > 100 µM (inactive) | > 100 µM (inactive) | – |
| Cc1ccc(S(=O)(=O)SC/C=C\CSS(=O)(=O)c2ccc(C)cc2)cc1 | 23.2 µM (inactive) and 23.3 µM (inactive) | – | 35.3 µM (inactive) and 44.6 µM (inactive) | – | – | 38.5 µM (inactive) and 23.4 µM (inactive) | 25.9 µM (inactive) and 27.2 µM (inactive) | 22.1 µM (inactive) and 29.1 µM (inactive) | – |
| CCCCCCCCCCCCCCCCCCOCC(COCCOCC[N+]1(CCCCCC(=O)[O-])CCCC1)Oc1ncccn1 (centres undefined) | 1.4 µM (inactive) | 0.37 µM (active) | 0.7 µM (active) | – | 1.21 µM (inactive) | 2.1 µM (inactive) | 2.56 µM (inactive) | 2.18 µM (inactive) | 4.85 µM (inactive) |
| c1ccc(SC(Sc2ccccc2)=C2CCC2)cc1 | > 100 µM (inactive) | > 100 µM (inactive) | > 100 µM (inactive) | > 100 µM (inactive) | > 100 µM (inactive) | 49.8 µM (inactive) | > 100 µM (inactive) | > 100 µM (inactive) | – |
| CN(C(=O)c1ccco1)C(=S)N1CCN(c2ccccc2)CC1 | > 100 µM (inactive) | > 100 µM (inactive) | > 100 µM (inactive) | – | > 100 µM (inactive) | > 100 µM (inactive) | – | > 100 µM (inactive) | > 100 µM (inactive) |
| CN(C)/N=N/c1cccc(C(N)=O)c1 | > 100 µM (inactive) | > 100 µM (inactive) | > 100 µM (inactive) | – | > 100 µM (inactive) | > 100 µM (inactive) | > 100 µM (inactive) | > 100 µM (inactive) | > 100 µM (inactive) |
| O=c1c2ccccc2nc(-c2ccccc2Cl)n1NC1OC(CO)C(O)C(O)C1O (centres undefined) | > 100 µM (inactive) | > 100 µM (inactive) | > 100 µM (inactive) | – | > 100 µM (inactive) | > 100 µM (inactive) | > 100 µM (inactive) | > 100 µM (inactive) | 32 µM (inactive) |
| COc1ccc(C(=O)C(CC2C(=O)NC(=O)NC2=O)c2ccc(OC)cc2)cc1 (centres undefined) | > 100 µM (inactive) | > 100 µM (inactive) | > 100 µM (inactive) | – | > 100 µM (inactive) | > 100 µM (inactive) | > 100 µM (inactive) | > 100 µM (inactive) | > 100 µM (inactive) |
| CC(C)O/C=C1\C(=O)C2(SCCS2)[C@H]2CCCC[C@@H]12 | 39.5 µM (inactive) | 37.2 µM (inactive) | 71 µM (inactive) | 52.8 µM (inactive) | – | – | 49 µM (inactive) | 45.9 µM (inactive) | 44.6 µM (inactive) |
| Cc1nc2sccn2c1C(=O)NN | > 100 µM (inactive) | > 100 µM (inactive) | > 100 µM (inactive) | > 100 µM (inactive) | > 100 µM (inactive) | > 100 µM (inactive) | – | > 100 µM (inactive) | 21.6 µM (inactive) |
| CCOC(=O)COc1cccc2occc(=O)c12 | > 100 µM (inactive) | > 100 µM (inactive) | > 100 µM (inactive) | – | > 100 µM (inactive) | > 100 µM (inactive) | > 100 µM (inactive) | > 100 µM (inactive) | – |
| CCCCc1c2c(nc3c1CCc1cc4cc5c(nc4nc1-3)-c1nc3c(c(CCCC)c1CC5)CCC/C3=C\c1ccccc1)/C(=C/c1ccccc1)CCC2 | > 100 µM (inactive) | > 100 µM (inactive) | – | – | > 100 µM (inactive) | – | > 100 µM (inactive) | > 100 µM (inactive) | – |
| COC12C(COC(=O)NCCO)C3=C(C(=O)C(C)=C(N)C3=O)N1CC1NC12 (centres undefined) | 37.9 µM (inactive) | 2.52 µM (inactive) | 19.8 µM (inactive) | – | 22.9 µM (inactive) | – | 80.5 µM (inactive) | 41.4 µM (inactive) | 36.8 µM (inactive) |
| CC1=CC(=C(c2ccc(N)c(C)c2)c2ccc(N)c(C)c2)C=CC1=N | 3.33 µM (inactive) | 2.45 µM (inactive) | 2.65 µM (inactive) | – | 1.2 µM (inactive) | 2.91 µM (inactive) | 4.84 µM (inactive) | 3.78 µM (inactive) | – |
| CCC(C)(C)n1c(C)nc2c1C(=O)c1ccccc1C2=O | 38.6 µM (inactive) | 11.8 µM (inactive) | 15.7 µM (inactive) | – | – | 16.8 µM (inactive) | 46.5 µM (inactive) | 15.6 µM (inactive) | – |
| O=C(O)CSc1nnc(-c2ccccc2O)[nH]1 | > 100 µM (inactive) | > 100 µM (inactive) | > 100 µM (inactive) | > 100 µM (inactive) | > 100 µM (inactive) | > 100 µM (inactive) | > 100 µM (inactive) | > 100 µM (inactive) | – |
| COc1cc(C(=O)C/C(CCC(=O)Nc2ccc(Cl)cc2Cl)=N/NC(=O)C(=O)NN)ccc1O | > 100 µM (inactive) | – | > 100 µM (inactive) | > 100 µM (inactive) | > 100 µM (inactive) | > 100 µM (inactive) | – | > 100 µM (inactive) | > 100 µM (inactive) |
